# Test results as given in patent US20110142866A1, “PEPTIDE ANALOGUES AND CONJUGATES THEREOF” (Eldrug S.A., priority 2007, published 2011).
# Entries after “also recorded” stand apart in the source; their conditions may differ. Positions of bridges follow the written chain, without caps; N, C: chain ends. No end group written: not given here.
# Tests used:
# [1] = tested on: IFN-γ secretion by T cells; test: IFN-γ ELISpot of spleen cells from immunized mice; type: in vivo, SJL/J mice; conditions: for cross-reaction of IFN-γ producing T cells with native MBP87-99 peptide: recall peptide native MBP87-99
# Procedure: (§1) Female 6-8 week old SJL/J mice used in all experiments, were purchased from Walter and Eliza Hall Institute (VIC Australia) and housed at the Biological Research Laboratory at Burnet Institute at Austin, Heidelberg, Australia. SJL/J mice were immunized twice on days 0, 14 intradermally (base of tail) with 50 μg MBP83-99 peptide analogue-KLH-reduced mannan.
# (§2) ELISpot analyses specific T cell responses to antigens by detecting the secretion of specific cytokines. Spleen cells from immunized SJL/J mice were isolated 14 days after immunization and assessed by ELISpot for IFN-γ, IL-4 or IL-10 secretion by T cells. IFN-γ ELISpot assay was performed on MultiScreen-IP Filter Plate (MAIP S4510) with hydrophobic PVDF filters (Millipore, UK) while IL-4 and IL-10 ELISpot was performed on MultiScreen-HA Filter Plate (MAHA S4510) with mixed cellulose esters filters (Millipore, UK). MAIP S4510 plates were pre-wet with 50 μl of 70% ethanol, washed 5 times with 200 μl sterile PBS and coated with 70 μl of 5 μg/ml anti-IFN-γ capture antibody, AN18 (Mabtech, Australia) in PBS and left to incubate at 4° C. O/N. While 70 μl of 5 μg/ml anti-IL-4 and anti-IL-10 capture antibody (Mabtech, Australia) was added directly to MAHA S4510 plates and incubated at 4° C. O/N without 70% ethanol treatment. Following 5 washes with PBS, plates were blocked by adding 200 μl of culture media (supplemented with 2.5% FCS) and incubated for 2 hours at 37° C. The blocking media was discarded and 10 μg/ml recall peptides (MBP83-99 peptide analogues not conjugated to KLH-reduced mannan) were added into each defined well. Con A (1.0 μg/ml; IL-4 and IFN-γ) or LPS (1.0 μg/ml; IL-10) were used as an internal positive controls and no peptide was used as negative control. Triplicate wells were set up for each condition. 5×10^5 spleen cells in 100 μl culture media were seeded into each well and incubated for 18 hours for IFN-γ, 24 hours for IL-4 and 48 hours for IL-10 at 37° C. Plates were washed 5 times PBS/0.05% Tween 20 and 5 times PBS and incubated for 2 hours at RT with anti-murine IFN-γ, IL-4 or IL-10 monoclonal antibody-biotin. Plates were washed and streptavidin-ALP was added at 1.0 μg/ml and incubated for 2.0 hours at RT. Spots of activity were detected using a colorimetric AP kit (Biorad, Hercules, Calif. USA) and counted using an AID ELISpot plate reader (Autoimmun Diagnostika GmbH, Germany). Data are presented as mean spot forming units (sfu) per 0.5×10^6 cells +/−standard error of the mean (SEM).
# (§3) MBP87-99, [R^91, A^96]MBP87-99 or [A^91, A^96]MBP87-99 peptides were dissolved in PBS and emulsified in an equal volume of complete Freund's adjuvant (CFA) which contained 1.0 mg/ml of heat killed Mycobacterium tuberculosis H37RA (Sigma, Victoria, Australia). SJL/J mice were given one subcutaneous injection containing 50 μg peptide into the base of tail.
# (§4) SJL/J mice were immunized twice on days 0 and 14 intradermally (base of tail) with 50 μg MBP87-99-KLH-reduced mannan, [R^91, A^96]MBP87-99-KLH-reduced mannan or [A^91, A^96]MBP87-99-KLH-reduced mannan conjugates.
# (§5) ELISpot detects specific T cell responses to antigens by measuring the secretion of specific cytokines from individual cells. Spleen cells from immunized SJL/J mice were isolated 28 days after CFA immunization or 14 days after the last immunization with reduced mannan-peptides and assessed by ELISpot for IFN-γ and IL-4 secretion by T cells. IFN-γ ELISpot assay was performed on MultiScreen-IP Filter Plate (MAIP S4510) with hydrophobic PVDF filters (Millipore, UK), while IL-4 ELISpot assays were performed on MultiScreen-HA Filter Plate (MAHA S4510) with mixed cellulose esters filters (Millipore, UK). MAIP S4510 plates were pre-weted with 50 μl of 70% ethanol, washed 5 times with 200 μl of sterile phosphate-buffered saline (PBS) and coated with 70 μl of 5 μg/ml anti-IFN-γ capture antibody, AN18 (Mabtech, Australia) in PBS and incubated O/N at 4° C. […]
# [2] = tested on: respective peptides conjugated to BSA or KLH; test: ELISA total IgG antibody responses to the respective peptide; type: in vivo, SJL/J mice
# Procedure: (§6) Blood was collected and sera isolated from mice prior to and 4 weeks after immunization with CFA or 14 days after the last immunization with reduced mannan conjugates. MBP87-99 or [A^91, A^96]MBP87-99 peptides conjugated to BSA or KLH were coated onto polyvinyl chloride (PVC) microtiter plates at 10 μg/ml in 0.2 M NaHCO3 buffer, pH 9.6, 0/N at 4° C. Non-specific binding was blocked with 2% BSA for 1.0 h at RT. After washing (0.05 Tween 20/PBS), serial dilutions of sera were added and incubated for a further 2 h at RT. The plates were washed and bound antibody was detected using HRP-conjugated sheep anti-mouse antibody (1/1000 dilution in PBS) (Amersham, UK) and developed using 2,2′-azino-di(3-ethylbenzthiazoline)6-sulfonic acid (ABTS) (Sigma, UK). Absorbance at 405 nm was recorded using a Fluostar Optima microplate reader (BMG labtech, Offenburg, Germany).
# (§7) ELISpot assays for IFN-γ and IL-4 secretion by T cells and ELISA assays for binding of sera to native MBP protein or peptide were carried out as previously described^3, 4, 20, 21. Mean values were compared using the Student's two-tailed t-test. P value threshold of p<0.01 indicates a statistically significant difference.
# [3] = tested on: IL-4 secretion by T cells; test: IL-4 ELISpot of spleen cells from immunized mice; type: in vivo, SJL/J mice
# Procedure: as §1, §2, §3, §4, §5
# native MBP87-99 peptide = test: ELISA cross reaction of sera with native MBP87-99 peptide; type: in vivo; conditions: 1/500 and 1/1,000 sera dilutions
# Procedure: as §6, §7
# MBP72-85 induced EAE = test: Induction-inhibition of MBP-EAE in Lewis rats; type: in vivo; conditions: co-injection (500 μg) with MBP72-85 (25 μg)
# [4] = 50 μg peptide conjugated to reduced mannan, two intradermal injections, spleen cells 14 days post-immunization
# [5] = 50 μg peptide emulsified in CFA, one injection, spleen cells 28 days
# [6] = peptide conjugated to reduced mannan
substance,measurement,setting,value
"VHFFANIVTARTP [[A^91, A^96]MBP87-99]",IFN-γ secreting T cells (in words),[1]; [4],no IFN-γ was detected
same,IFN-γ secreting T cells (in words),[1]; [5],strong levels
same,cross-reaction of IFN-γ producing T cells with native MBP87-99 peptide,[1]; [6],did not cross-react
same,cross-reaction of IFN-γ producing T cells with native MBP87-99 peptide,[1]; peptide emulsified in CFA,did not cross-react
same,IgG antibody responses (in words),[2]; peptide emulsified in CFA,No IgG antibody levels
same,IL-4 secreting T cells (in words),[3]; [4],high levels
same,IL-4 secreting T cells (in words),[3]; [5],high levels
same,cross-reaction of antibodies with native MBP87-99 peptide,native MBP87-99 peptide; [6],did not cross-react
same,cross-reaction of antibodies with native MBP87-99 peptide,native MBP87-99 peptide; peptide emulsified in CFA,did not cross-react
"VHFFKNIVTPRTP [MBP87-99, reference compound]",IFN-γ secreting T cells (in words),[1]; [4],high levels
same,IFN-γ secreting T cells (in words),[1]; [5],high levels
same,IgG antibody responses (in words),[2]; [6],higher levels
same,IgG antibody responses (in words),[2]; peptide emulsified in CFA,very low levels and Low
same,IL-4 secreting T cells (in words),[3]; [4],did not induce; also recorded: No detectable
same,IL-4 secreting T cells (in words),[3]; [5],did not induce; also recorded: No detectable
"VHFFRNIVTARTP [[R^91, A^96]MBP87-99]",decrease of IFN-γ relative to native MBP87-99,[1]; [6],70%
same,decrease of IFN-γ relative to native MBP87-99,[1]; peptide emulsified in CFA,30%
same,IL-4 secreting T cells (in words),[3]; [4],very high
same,IL-4 secreting T cells (in words),[3]; [5],low levels
same,inhibition of EAE,"MBP72-85 induced EAE; listed as [Arg^91, Ala^96]MBP87-99",completely prevented the development of EAE
same,inhibition of EAE,"MBP72-85 induced EAE; listed as [Arg^91,Ala^96]MBP87-99",completely prevented the induction of EAE
Val-His-Phe-Phe-Lys^91-Asn-Ile-Val-Thr-Ala^96-Arg-Thr-Pro^99 (VHFFKNIVTARTP; lactam 5-C) [cyclo(91-99)[Ala^96] MBP87-99],inhibition of EAE,MBP72-85 induced EAE,low inhibitory activity
"Val^87-His-Phe-Phe-Arg^91-Asn-Ile-Val-Thr-Ala^96-Arg-Thr-Pro^99 [cyclo(87-99)[Arg^91, Ala^96] MBP87-99]",inhibition of EAE,MBP72-85 induced EAE,strong inhibitor of EAE
same,inhibition of EAE,"MBP72-85 induced EAE; listed as cyclo(87-99)[Arg^91,Ala^96]MBP87-99",completely prevented the induction of EAE
"cyclo, head-to-tail, VHFFANIVTARTP (VHFFXNIVTXRTP; cyclised or stapled) [cyclo(87-99)[A^91, A^96]MBP87-99]",IFN-γ secreting T cells (in words),[1]; [4],reduce IFN-γ production
same,IFN-γ secreting T cells (in words),[1]; [5],reduce IFN-γ production
same,decrease of IFN-γ compared to linear MBP87-99 conjugated to reduced mannan,[1]; [6],~50%
same,decrease of IFN-γ compared to linear MBP87-99 emulsified in CFA,[1]; [6],~70%
same,decrease of IFN-γ compared to the same peptide emulsified in CFA,[1]; [6],~50%
same,cross-reaction of IFN-γ producing T cells with native MBP87-99 peptide,[1]; [6],did not cross-react
same,cross-reaction of IFN-γ producing T cells with native MBP87-99 peptide,[1]; peptide emulsified in CFA,did not cross-react
same,IgG antibody responses (in words),[2]; [6],higher levels
same,IgG antibody responses (in words),[2]; peptide emulsified in CFA,no IgG antibodies
same,IL-4 secreting T cells (in words),[3]; [4],moderate levels
same,IL-4 secreting T cells (in words),[3]; [5],moderate levels
same,cross-reaction of antibodies with native MBP87-99 peptide,native MBP87-99 peptide; [6],did not react
same,cross-reaction of antibodies with native MBP87-99 peptide,native MBP87-99 peptide; peptide emulsified in CFA,did not react
